How the values were obtained:
[1] = tested on: RFC expressing pc43-10 cells; assay: Inhibition of RFC expressing pc43-10 cells; assay type: cell-based; conditions: pc43-10 cells vs FR-alpha expressing cells
Procedure: (§1) AAG366, AAG344, the clinically used antifolates methotrexate, pemetrexed, ratitrexed, as well as the most important GARFTase inhibitor DDATHF (Lometrexol) were evaluated.

[2] = tested on: FR-alpha expressing RT16 cells; assay: Inhibition of FR-alpha expressing RT16 cells; assay type: cell-based; conditions: for selectivity for FR-alpha expressing RT16 cells over RFC expressing pc43-10 cells: RT16 vs pc43-10 cells
Procedure: as §1

Row | SMILES | potency against RFC expressing pc43-10 cells compared to FR-alpha expressing RT16 or KB cells [1] | potency against FR-alpha expressing RT16 cells compared with AAG366 and AAG344 [2] | selectivity for FR-alpha expressing RT16 cells over RFC expressing pc43-10 cells [2]
1 | Nc1nc2c(c(=O)[nH]1)C[C@@H](CCc1ccc(C(=O)N[C@@H](CCC(=O)O)C(=O)O)cc1)CN2 [DDATHF] | equal potency | less potent | none showed selectivity
2 | CN(Cc1cnc2nc(N)nc(N)c2n1)c1ccc(C(=O)N[C@@H](CCC(=O)O)C(=O)O)cc1 [methotrexate] | greater potency | less potent | none showed selectivity
3 | Cc1nc(=O)c2cc(CN(C)c3ccc(C(=O)N[C@@H](CCC(=O)O)C(=O)O)s3)ccc2[nH]1 [ratitrexed] | greater potency | less potent | none showed selectivity
4 | Nc1nc2[nH]cc(CCc3ccc(C(=O)N[C@@H](CCC(=O)O)C(=O)O)cc3)c2c(=O)[nH]1 [pemetrexed] | greater potency | less potent | none showed selectivity

— patent US9446045B2, “Methods of using selective chemotherapeutic agents for targeting tumor cells” (Duquesne University of the Holy Ghost, priority 2006, dated 2016)
